Measurements: ChEMBL document CHEMBL5126668, “The Invention of WM382, a Highly Potent PMIX/X Dual Inhibitor toward the Treatment of Malaria” (ACS Med Chem Lett, 2022)
pEC50, pIC50: −log10 of the molar value. ≈ marks a conversion by molar mass, not a printed value. Blank lines part the entries; values can stand above or below the compound they belong to.

Tests used:
Plasmodium falciparum [1] = test: Antimalarial activity against asexual blood stage Plasmodium falciparum infected in RBC measured after 72 hrs by LDH release assay; type: functional, organism-based; details: Erythrocyte
Plasmepsin IX = target: T1, Plasmepsin IX (Plasmodium falciparum, UniProt Q8ILG2); test: Inhibition of Plasmodium falciparum 3D7 HA-glms-tagged PMIX using DABCYL-HSFIQEGKEE-EDANS as substrate measured after 2 hrs by FRET assay
T1 sequence (Q8ILG2 whole entry): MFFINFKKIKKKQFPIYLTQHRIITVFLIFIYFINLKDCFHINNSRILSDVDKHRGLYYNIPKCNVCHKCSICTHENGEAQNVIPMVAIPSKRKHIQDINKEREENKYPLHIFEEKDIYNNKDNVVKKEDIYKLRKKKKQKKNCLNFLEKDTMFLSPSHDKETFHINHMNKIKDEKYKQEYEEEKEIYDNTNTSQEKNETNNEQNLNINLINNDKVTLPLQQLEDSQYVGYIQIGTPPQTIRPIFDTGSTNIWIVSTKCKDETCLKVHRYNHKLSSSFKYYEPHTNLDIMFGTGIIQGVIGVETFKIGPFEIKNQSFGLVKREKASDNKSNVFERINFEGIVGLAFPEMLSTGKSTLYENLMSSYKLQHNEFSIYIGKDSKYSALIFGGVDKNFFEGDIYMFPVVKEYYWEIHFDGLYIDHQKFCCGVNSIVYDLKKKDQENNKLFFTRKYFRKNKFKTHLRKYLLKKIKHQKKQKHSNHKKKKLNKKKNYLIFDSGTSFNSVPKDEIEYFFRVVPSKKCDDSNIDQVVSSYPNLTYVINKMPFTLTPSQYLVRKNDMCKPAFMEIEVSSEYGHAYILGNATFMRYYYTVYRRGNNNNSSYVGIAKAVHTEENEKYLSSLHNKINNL

[2] = Volume of distribution in rat; type: ADME; details: in vivo
[3] = Mean residence time in rat; type: ADME; details: in vivo
[4] = Kinetic solubility of the compound; type: physicochemical; details: read-out: Kinetic_solubility
[5] = Plasma clearance in rat; type: ADME
[6] = Oral bioavailability in rat; type: ADME, organism-based; details: in vivo
Plasmepsin X = Plasmepsin X (Plasmodium falciparum (isolate 3D7), UniProt Q8IAS0); test: Inhibition of Plasmodium falciparum 3D7 HA-glms-tagged PMX using DABCYL-HSFIQEGKEE-EDANS as substrate measured after 2 hrs by FRET assay
[7] = Protein binding in rat plasma; type: ADME, cell-free; details: read-out: PPB (converted)
[8] = Plasma clearance in mouse; type: ADME, organism-based
[9] = Unbound clearance in rat; type: ADME; details: in vivo
[10] = Unbound plasma clearance in mouse; type: ADME, organism-based; details: in vivo
[11] = Protein binding in mouse plasma; type: ADME, cell-free; details: read-out: PPB (converted)
[12] = Apparent permeability across apical to basolateral side in MDCK cells; type: ADME, cell-based, Canis lupus familiaris; details: dog
[13] = Volume of distribution in mouse; type: ADME, organism-based; details: in vivo
[14] = Mean residence time in mouse; type: ADME, organism-based; details: in vivo
[15] = Unbound volume of distribution in rat; type: ADME; details: in vivo
[16] = Lipophilicity, log D of compound at pH 7.4; type: physicochemical; details: buffer
[17] = Oral bioavailability in mouse; type: ADME, organism-based; details: in vivo
[18] = Unbound volume of distribution in mouse; type: ADME, organism-based; details: in vivo
Plasmodium falciparum [19] = test: Antimalarial activity Plasmodium falciparum Dd2 assessed as minimum inoculum for resistance measured up to 62 days by microscopy; type: functional; details: time <= 62 day
Plasmodium falciparum [20] = test: Antimalarial activity Plasmodium falciparum Dd2 assessed as EC90 fold pressure measured up to 62 days by microscopy; type: functional; details: Dd2, 1488 h, time <= 62 day

Plasmepsin X, sequence (Q8IAS0 whole entry): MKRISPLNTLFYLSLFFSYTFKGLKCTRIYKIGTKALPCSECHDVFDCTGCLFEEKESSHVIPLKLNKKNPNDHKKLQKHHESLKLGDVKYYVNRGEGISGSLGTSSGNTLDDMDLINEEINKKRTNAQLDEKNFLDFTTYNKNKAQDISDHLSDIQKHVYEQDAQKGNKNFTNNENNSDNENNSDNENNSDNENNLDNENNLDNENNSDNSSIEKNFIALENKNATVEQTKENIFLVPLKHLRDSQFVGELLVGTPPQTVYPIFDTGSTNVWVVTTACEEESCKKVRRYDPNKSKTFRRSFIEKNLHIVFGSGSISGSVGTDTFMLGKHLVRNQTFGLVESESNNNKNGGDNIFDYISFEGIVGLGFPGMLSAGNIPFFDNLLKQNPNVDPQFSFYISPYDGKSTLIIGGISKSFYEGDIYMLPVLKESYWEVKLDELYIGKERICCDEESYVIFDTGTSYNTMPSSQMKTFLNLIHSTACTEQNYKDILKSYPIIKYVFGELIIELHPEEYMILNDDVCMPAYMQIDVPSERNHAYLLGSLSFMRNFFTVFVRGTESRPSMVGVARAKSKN

pEC50 (Plasmodium falciparum [1]): 6.96
SMILES: CCC1(CC)CC(=O)N(Cc2cccc(C(=O)N[C@H]3CCOc4ccccc43)n2)C(=N)N1

pEC50 (Plasmodium falciparum [1]): 7.19
SMILES: CC(C)[C@]1(C)CC(=O)N(Cc2cccc(C(=O)NC3CCNc4ccccc43)c2)C(=N)N1 (mixture of isomers)

pIC50 (Plasmepsin IX): 8.66
Vd [2]: 12 L/kg
MRT [3]: 2.7 h
solubility kinetic [4]: 0.2 µM (≈ 0.0953 µg/mL)
clearance [5]: 79 mL/min/kg
bioavailability [6]: 27%
pIC50 (Plasmepsin X): 10.15
fraction unbound [7]: 0.152
clearance [8]: 68 mL/min/kg
CL free [9]: 518 mL/min/kg
pEC50 (Plasmodium falciparum [1]): 8.60
CL free [10]: 1278 mL/min/kg
fraction unbound [11]: 0.053
Papp A→B [12]: 8.8 ×10⁻⁶ cm/s
Vd [13]: 5.4 L/kg
MRT [14]: 1.3 h
Vdu [15]: 80 L/kg
logD [16]: 2.1
bioavailability [17]: 4%
Vdu [18]: 102 L/kg
SMILES: CCC1(CC)CC(=O)N([C@@H]2CCOc3ccc(C(=O)NC4CCOc5ccccc54)cc32)C(=N)N1 (single isomer, unassigned)

pEC50 (Plasmodium falciparum [1]): < 6.00
SMILES: CC(C)[C@]1(C)CC(=O)N(Cc2cccc(C(=O)N3Cc4ccccc4C3)c2)C(=N)N1

pEC50 (Plasmodium falciparum [1]): 7.40
SMILES: CCC1(CC)CC(=O)N([C@H](CCOC)c2cccc(C(=O)N[C@@H](C)c3ccccc3)c2)C(=N)N1

pEC50 (Plasmodium falciparum [1]): 9.00
SMILES: CCC1(CC)CC(=O)N([C@H](c2cccnc2)c2cccc(C(=O)N[C@@H](C)c3ccccc3)c2)C(=N)N1

pEC50 (Plasmodium falciparum [1]): 6.94
SMILES: CCC1(CC)CC(=O)N(Cc2cccc(C(=O)N[C@@H](C)c3ccccc3)c2)C(=N)N1

pIC50 (Plasmepsin X): 8.24
pEC50 (Plasmodium falciparum [1]): 8.00
SMILES: CC(C)C[C@H](c1ccc(C(F)(F)F)c(C(=O)N2Cc3nccnc3C2)c1)N1C(=N)N[C@](CC2CC2)(c2ccccc2)CC1=O

SMILES: CC(C)[C@]1(C)CC(=O)N(C(c2ccccc2)c2cccc(C(=O)N[C@@H](C)c3ccccc3)c2)C(=N)N1 (some centres not stated)
Activity (Plasmodium falciparum [19]): >9
EC90 (Plasmodium falciparum [20]): 80 nM
pEC50 (Plasmodium falciparum [1]): 8.21

pEC50 (Plasmodium falciparum [1]): 6.77
SMILES: CCC1(CC)CC(=O)N(Cc2cc(C(=O)N[C@H]3CCOc4ccccc43)cnn2)C(=N)N1

pEC50 (Plasmodium falciparum [1]): 7.92
SMILES: CCC1(CC)CC(=O)N(Cc2cc(C(=O)N[C@H]3CCOc4ccccc43)ccn2)C(=N)N1

pEC50 (Plasmodium falciparum [1]): 8.82
SMILES: CC(C)[C@]1(C)CC(=O)N(Cc2cccc(C(=O)N[C@H]3CCOc4ccccc43)c2)C(=N)N1

pEC50 (Plasmodium falciparum [1]): 7.17
SMILES: CC(C)[C@]1(C)CC(=O)N(Cc2cccc(C(=O)NC3CCCc4ccccc43)c2)C(=N)N1 (mixture of isomers)

SMILES: CCC1(CC)CC(=O)N([C@@H]2CCOc3ccc(C(=O)N[C@H]4CC(C)(C)Oc5ccccc54)cc32)C(=N)N1
pIC50 (Plasmepsin IX): 8.85
Vd [2]: 9.4 L/kg
Activity (Plasmodium falciparum [19]): >9
EC90 (Plasmodium falciparum [20]): 1.5 nM
MRT [3]: 3.7 h
solubility kinetic [4]: 0.1 µM (≈ 0.0505 µg/mL)
clearance [5]: 42 mL/min/kg
bioavailability [6]: 8%
pIC50 (Plasmepsin X): 10.52
clearance [8]: 42 mL/min/kg
CL free [9]: 1022 mL/min/kg
pEC50 (Plasmodium falciparum [1]): 9.40
CL free [10]: 774 mL/min/kg
MRT [14]: 2.5 h
Vdu [15]: 222 L/kg
logD [16]: 2.5
Vdu [18]: 120 L/kg

pEC50 (Plasmodium falciparum [1]): < 6.00
SMILES: CCC1(CC)NC(=N)N(Cc2cc(F)cc(C(=O)N[C@@H](C)c3ccccc3)c2)C1=O

pEC50 (Plasmodium falciparum [1]): 6.80
SMILES: CCC1(CC)CC(=O)N(C(c2cccc(C(=O)N[C@@H](C)c3ccccc3)c2)C2CC2)C(=N)N1 (mixture of isomers)

pEC50 (Plasmodium falciparum [1]): 6.16
SMILES: CC(C)C[C@@H](c1ccc(C(F)(F)F)c(C(=O)N2Cc3nccnc3C2)c1)N1C(=N)N[C@](CC2CC2)(c2ccccc2)CC1=O

pEC50 (Plasmodium falciparum [1]): 7.19
SMILES: CCC1(CC)CC(=O)N(Cc2ccnc(C(=O)N[C@H]3CCOc4ccccc43)n2)C(=N)N1

pEC50 (Plasmodium falciparum [1]): 8.06
SMILES: CCC1(CC)CC(=O)N([C@H](CCN2CCCC2)c2cccc(C(=O)N[C@@H](C)c3ccccc3)c2)C(=N)N1

pEC50 (Plasmodium falciparum [1]): < 6.00
SMILES: CC(C)[C@]1(C)CC(=O)N(Cc2cccc(C(=O)NCCc3ccccc3)c2)C(=N)N1

pEC50 (Plasmodium falciparum [1]): 8.00
SMILES: CCC1(CC)CC(=O)N(Cc2cncc(C(=O)N[C@H]3CCOc4ccccc43)c2)C(=N)N1

pEC50 (Plasmodium falciparum [1]): < 6.00
SMILES: C[C@H](NC(=O)c1cc(F)cc(CN2C(=N)NC(c3ccccc3)CC2=O)c1)c1ccccc1 (single isomer, unassigned)

pEC50 (Plasmodium falciparum [1]): 6.36
SMILES: CC(C)[C@]1(C)CC(=O)N([C@@H](c2ccccc2)c2cccc(C(=O)N[C@@H](C)c3ccccc3)c2)C(=N)N1

pEC50 (Plasmodium falciparum [1]): < 6.00
SMILES: C[C@H](NC(=O)c1cc(F)cc(CN2C(=N)NC(C)(C)CC2=O)c1)c1ccccc1
